The source of these data is publication PMC10433430, “The transport of mannitol in Sinorhizobium meliloti is carried out by a broad-substrate polyol transporter SmoEFGK and is affected by the ability to transport and metabolize fructose” (Microbiology, 2023).

Structures are written as SMILES.

The target of test [1] is T1, SmoEFGK (Sinorhizobium meliloti, UniProt Q92N02).
T1 construct: gene smoE; native ABC transporter in intact S. meliloti Rm1021 cells grown on mannitol; smoK::Tn5-B20 mutant as control; with ABC transporter, sorbitol/mannitol permease SmoF; ABC transporter, sorbitol/mannitol permease SmoG
T1 sequence (Q92N03 entry or part of it): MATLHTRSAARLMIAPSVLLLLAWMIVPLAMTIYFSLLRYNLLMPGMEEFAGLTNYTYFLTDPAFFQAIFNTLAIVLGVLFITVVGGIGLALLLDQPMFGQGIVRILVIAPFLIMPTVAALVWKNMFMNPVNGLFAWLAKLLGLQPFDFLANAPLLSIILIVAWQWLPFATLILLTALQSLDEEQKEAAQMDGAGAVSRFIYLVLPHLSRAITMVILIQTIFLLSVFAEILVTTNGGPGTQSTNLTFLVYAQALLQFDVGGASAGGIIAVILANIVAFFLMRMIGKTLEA
T1 sequence (Q92N04 entry or part of it, further chain): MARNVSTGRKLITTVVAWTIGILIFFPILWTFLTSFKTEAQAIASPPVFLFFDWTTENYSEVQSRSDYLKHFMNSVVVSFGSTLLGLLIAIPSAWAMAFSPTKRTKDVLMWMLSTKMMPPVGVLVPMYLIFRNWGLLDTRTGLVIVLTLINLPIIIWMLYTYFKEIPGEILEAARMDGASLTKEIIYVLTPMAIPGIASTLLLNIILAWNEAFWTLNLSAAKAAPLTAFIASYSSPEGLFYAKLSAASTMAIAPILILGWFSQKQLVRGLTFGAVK
T1 sequence (Q92N02 entry or part of it): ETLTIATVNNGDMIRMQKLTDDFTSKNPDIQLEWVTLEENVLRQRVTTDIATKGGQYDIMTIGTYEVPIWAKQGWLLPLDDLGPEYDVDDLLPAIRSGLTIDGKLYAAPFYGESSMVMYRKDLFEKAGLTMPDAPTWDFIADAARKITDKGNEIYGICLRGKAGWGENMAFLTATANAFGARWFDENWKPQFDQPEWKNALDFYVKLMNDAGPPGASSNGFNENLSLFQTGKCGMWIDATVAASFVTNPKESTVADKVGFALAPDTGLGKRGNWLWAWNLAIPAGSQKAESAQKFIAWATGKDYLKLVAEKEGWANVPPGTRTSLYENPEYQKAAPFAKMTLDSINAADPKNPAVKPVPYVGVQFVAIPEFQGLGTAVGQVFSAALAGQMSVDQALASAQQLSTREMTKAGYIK
T1 sequence (Q92N05 entry or part of it, further chain): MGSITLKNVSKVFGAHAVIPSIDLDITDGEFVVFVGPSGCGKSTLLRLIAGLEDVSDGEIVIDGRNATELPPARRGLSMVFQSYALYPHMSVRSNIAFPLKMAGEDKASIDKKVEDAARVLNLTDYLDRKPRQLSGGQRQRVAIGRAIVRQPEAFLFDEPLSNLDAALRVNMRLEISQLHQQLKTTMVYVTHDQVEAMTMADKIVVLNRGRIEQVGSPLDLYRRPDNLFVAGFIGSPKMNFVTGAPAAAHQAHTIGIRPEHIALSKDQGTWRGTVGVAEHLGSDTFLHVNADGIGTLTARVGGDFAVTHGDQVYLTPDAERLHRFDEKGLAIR
As to the kind of experiment: […]-mannitol uptake, wild type against smoK mutant. The following applies: labelled compound, 2 µM; cells grown in mannitol and glucose. The class given is cell-based.

The target of test [2] is T1, SmoEFGK. As to the kind of experiment: […]-mannitol uptake competition, intact cells. The class given is cell-based. The note with it: 2 µM 14C-mannitol as tracer, mannitol-grown wild-type Rm1021.
For test [3], the target named is T2, MtlK (Sinorhizobium meliloti, UniProt Q92N07).
T2 construct: full length from plasmid pJD02 (mtlK/pCO37) in S. meliloti smoS mutant; cell extract, native gel
T2 sequence (Q92N07 entry or part of it): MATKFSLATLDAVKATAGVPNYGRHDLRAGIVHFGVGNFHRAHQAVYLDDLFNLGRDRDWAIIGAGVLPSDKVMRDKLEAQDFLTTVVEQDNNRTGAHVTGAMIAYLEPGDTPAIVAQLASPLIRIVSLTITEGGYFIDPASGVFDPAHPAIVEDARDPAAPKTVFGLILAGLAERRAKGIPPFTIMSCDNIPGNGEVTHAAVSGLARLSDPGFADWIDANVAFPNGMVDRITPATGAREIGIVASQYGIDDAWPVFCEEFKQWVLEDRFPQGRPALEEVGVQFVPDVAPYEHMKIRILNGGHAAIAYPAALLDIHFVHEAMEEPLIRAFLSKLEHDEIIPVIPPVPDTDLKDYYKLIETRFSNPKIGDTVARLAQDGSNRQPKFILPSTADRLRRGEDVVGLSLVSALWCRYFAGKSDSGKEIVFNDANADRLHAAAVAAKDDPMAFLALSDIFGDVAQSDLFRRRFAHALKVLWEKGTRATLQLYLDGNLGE
As to the kind of experiment: in-gel dehydrogenase activity stain, native PAGE. The class given is biochemical. The note with it: NAD+, phenazine methosulfate, nitro blue tetrazolium; cell extract.

The target of test [4] is T3, Frk (Sinorhizobium meliloti, UniProt Q92SC5).
T3 construct: N-terminal 6xHis tag, expressed from pMK48 (pRK7813) in S. meliloti Rm1021, partially purified on Ni-NTA
T3 sequence (Q92SC5 1-308): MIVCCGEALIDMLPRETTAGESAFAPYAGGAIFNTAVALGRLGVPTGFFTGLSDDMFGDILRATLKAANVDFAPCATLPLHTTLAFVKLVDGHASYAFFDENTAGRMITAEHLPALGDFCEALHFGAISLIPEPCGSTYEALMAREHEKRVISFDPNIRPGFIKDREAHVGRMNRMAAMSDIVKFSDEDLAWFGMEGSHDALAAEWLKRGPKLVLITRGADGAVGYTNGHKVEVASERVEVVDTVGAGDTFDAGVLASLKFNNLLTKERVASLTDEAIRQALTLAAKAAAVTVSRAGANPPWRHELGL
Nature of the test: PK/LDH-coupled kinase assay, […] nm. The note with it: 6 mM fructose, 3 mM ATP, 6 mM MgCl2, HEPES pH 7.5; partially purified. The class given is biochemical.

For test [5], the target named is T1, SmoEFGK. Nature of the test: […]-mannitol uptake competition, intact cells. The note with it: 2 µM 14C-mannitol as tracer, 10 µM unlabelled maltitol; mannitol-grown wild-type Rm1021. The class given is cell-based.
Test [6] deals with T4, SmoS (Sinorhizobium meliloti, UniProt Q92N06).
T4 construct: full length from plasmid pSMc01500 (smoS/pCO37) in S. meliloti smoS mutant; cell extract, native gel
T4 sequence (Q92N06 entry or part of it): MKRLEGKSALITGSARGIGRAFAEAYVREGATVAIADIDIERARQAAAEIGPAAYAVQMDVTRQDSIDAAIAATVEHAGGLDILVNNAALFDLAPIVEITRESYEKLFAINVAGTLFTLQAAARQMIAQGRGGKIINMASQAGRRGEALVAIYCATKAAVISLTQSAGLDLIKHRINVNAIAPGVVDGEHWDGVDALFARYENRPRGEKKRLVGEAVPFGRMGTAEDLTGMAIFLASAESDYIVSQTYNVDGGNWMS
Nature of the test: in-gel dehydrogenase activity stain, native PAGE. The class given is biochemical. The note with it: sorbitol as substrate, phenazine methosulfate, nitro blue tetrazolium; cell extract.

For the compound `OC[C@@H](O)[C@@H](O)[C@H](O)[C@H](O)CO` [mannitol], the “14C-mannitol uptake, wild type against smoK mutant” value in test [1] was “SRmD495 cells were severely compromised in their ability to transport mannitol”.
As to `OC[C@@H](O)[C@@H](O)[C@H](O)[C@@H](O)CO` [sorbitol], the “% reduction of uptake at 2 μM” value in test [2] (2 µM unlabelled sorbitol) was ~ 50%.
For `OC[C@@H](O)C(O)[C@H](O)CO` [D-arabitol], the “in-gel dehydrogenase activity stain, native PAGE” value in test [3] is recorded as “if D-arabitol was used as a substrate, bands that are coincident with what mannitol result”. Moreover, the “% reduction of uptake at 2 μM” value in test [2] (2 µM unlabelled D-arabitol) is recorded as ~ 50%.
For `OCC1(O)OC[C@@H](O)[C@@H](O)[C@@H]1O` (stereo partly shown) [fructose], the “PK/LDH-coupled kinase assay, 340 nm” value in test [4] is listed as “partially purified Frk was assayed for kinase activity using fructose as a substrate”.
On to `OC[C@@H](O)[C@@H](O[C@H]1O[C@H](CO)[C@@H](O)[C@H](O)[C@H]1O)[C@H](O)[C@@H](O)CO` [maltitol], for which the “% reduction of uptake at 10 μM” value in test [5] was greater than 50%.
With `NC(=O)c1ccc[n+]([C@@H]2O[C@H](COP(=O)(O)OP(=O)(O)OC[C@H]3O[C@@H](n4cnc5c(N)ncnc54)[C@H](O)[C@@H]3O)[C@@H](O)[C@H]2O)c1` [NAD^+], the “in-gel dehydrogenase activity stain, native PAGE” value in test [6] was “smoS encodes an NAD^+-dependent sorbitol and galactitol dehydrogenase”.
